{"source": "patent US20210386668A1", "about": "“Cyclodextrin for use in the treatment and prevention of late phase bronchoconstriction in allergen-induced asthma” (Universite de Liege, priority 2020, published 2021)", "key": {"[1]": {"test_system": "BALB/c mice, OVA induced inflammation and AHR", "assay": "Ovalbumin-induced airway inflammation and AHR mouse model", "assay_type": "in vivo", "conditions": "HPBCD 10 mM inhalation", "protocol": "Two intranasal instillations of house dust mite were performed on days 0 and 7 to induce the migration of specific memory CD4+ T-cells into lung parenchyma, followed by a challenge instillation on day 14. […] The last house dust mite instillation was preceded by two days of HPBCD or PBS inhalations and followed by three inhalations until sacrifice (FIG. 1A). […] Airway responsiveness was evaluated by exposing animals to increasing doses of inhaled methacholine and by measuring Newtonian resistances representing the resistance of central or conducting airways. […] The bronchoalveolar lavage fluid (BALF) was then recovered and analyzed for cell content. […] The effect of HPBCD inhalation on T-cell numbers in lung parenchyma was investigated by flow cytometry.\nMice were lightly isoflurane-anesthetized and received an intra-nasal (i.n) instillation of HDM extract (100 μg; 50 μl) in endotoxin-free saline on days 0, 7 and 14. Mice were subjected to inhalation (generated by ultrasonic nebulizer (Devilbiss 2000)) of HPBCD 10 mM or endotoxin-free saline for 40 minutes between day 12 and 16. On day 14, they received the inhalation 1 h before the last i.n. instillation of HDM. After measurement of bronchial responsiveness using the FlexiVent System, mice were sacrificed on day 17. Mice submitted to ovalbumin as allergen were i.p injected with 10 mcg ovalbumin grade 5 and exposed to ovalbumin grade 3 by inhalation between day 21 and 25. Mice were treated with HPBCD 10 mM given by inhalation between day 19 and 25. […]\nMice were anesthetized by intraperitoneal injection with a mixture of ketamine (10 mg/ml, Merial, Brussel, Belgium) and xylazine (1 mg/ml, VMD, Arendonk, Belgium). […] Respiratory parameters following methacholine challenge (3, 6, and 12 gr/l (or 24 gr/l)) were evaluated using a 3 sec broadband signal to measure input impedance from 1 to 20.5 Hz and to calculate constant-phase model parameters (Quick-prime 3). Newtonian resistance (Rn) was the main parameter measured during the challenge. […]"}, "[2]": {"test_system": "naïve CD4+ T cells (Balb/c)", "assay": "In-vitro T-cell proliferation assay (BrdU incorporation, IL-2 secretion)", "assay_type": "cell-based, mice", "conditions": "HPBCD 5 mM, 48 h incubation", "protocol": "The term “T-cell proliferation” means an increase in T-cells over a given period of time. In one embodiment, T-cell proliferation is measured by flow cytometry analysis of lung TH2 cells and total leukocyte counts. An exemplary embodiment of a way to measure T-cell proliferation is given in example 1 below. In one embodiment, naïve CD4+ T cells are exposed to HPBCD at a concentration of 5 mM and an anti-CD3 (3 mcg/ml) for 24 hours or 48 hours with HPBCD (5 mM) or with culture medium alone at 37° C. 5% CO2. During the last 2 hours of the proliferation test, Bromodeoxyuridine is added to the medium and incorporation is quantified by ELISA. IL-2 secretion is measured in the medium after 24 hours and 48 hours of anti-CD3 stimulation through ELISA. HPBCD was used at a concentration of 5 mM. […] Naïve CD4+ T cells were isolated from Balb/c mice spleen and purified with a MACS® negative selection kit. 1.5×10^5 cells were seeded in a 96 well plate and incubated with HPBCD 5 mM (in RPMI 10% FBS 1% pen/strep) or with medium alone for 3 h. Cells were then recovered and plated in an anti-CD3 (3 mcg/ml) coated well for 24 or 48 h with HPBCD (5 mM) or with culture medium alone at 37° C. 5% CO2. During the last 2 h of the proliferation test, BrdU was added to medium and incorporation was quantified by ELISA following manufacturer instructions. […]"}}, "data": [{"smiles": "CC(O)COC[C@H]1O[C@@H]2O[C@H]3[C@H](O)[C@@H](O)[C@@H](O[C@H]4[C@H](O)[C@@H](O)[C@@H](O[C@H]5[C@H](O)[C@@H](O)[C@@H](O[C@H]6[C@H](O)[C@@H](O)[C@@H](O[C@H]7[C@H](O)[C@@H](O)[C@@H](O[C@H]8[C@H](O)[C@@H](O)[C@@H](O[C@H]1[C@H](O)[C@H]2O)O[C@@H]8COCC(C)O)O[C@@H]7COCC(C)O)O[C@@H]6COCC(C)O)O[C@@H]5COCC(C)O)O[C@@H]4COCC(C)O)O[C@@H]3COCC(C)O", "note": "(stereo partly drawn) [HPBCD, 2-hydroxypropyl-beta-cyclodextrin]", "values": [{"measurement": "airway hyperresponsiveness induced by ovalbumin", "setting": "[1]; FIG. 2B", "value": "significantly decrease"}, {"measurement": "number of inflammatory cells in BALF", "setting": "[1]; FIG. 2C", "value": "significantly decrease"}, {"measurement": "number of eosinophils around the bronchi", "setting": "[1]; FIG. 2D", "value": "significantly decrease"}, {"measurement": "cytotoxicity (BrdU incorporation)", "setting": "[2]", "value": "not associated with cytotoxicity"}]}]}
